According to ChEMBL document CHEMBL2163337, “Trigohowilols A-G, degraded diterpenoids from the stems of Trigonostemon howii” (J Nat Prod, 2012):
In brackets after ≈: the same amount, converted by molar mass.

How the values were obtained:
[1] = test system: Staphylococcus aureus; experiment: Antibacterial activity against methicillin-resistant Staphylococcus aureus clinical isolate 98 by two-fold dilution method; format: functional
[2] = test system: Staphylococcus aureus; experiment: Antibacterial activity against methicillin-resistant Staphylococcus aureus clinical isolate 92 by two-fold dilution method; format: functional
[3] = test system: Pseudomonas aeruginosa; experiment: Antibacterial activity against Pseudomonas aeruginosa ATCC 27853 by two-fold dilution method; format: functional
[4] = test system: Staphylococcus aureus; experiment: Antibacterial activity against Staphylococcus aureus ATCC 25923 by two-fold dilution method; format: functional
[5] = test system: SW480; experiment: Cytotoxicity against human SW480 cells by MTT assay; format: functional, cell-based
[6] = test system: MCF7; experiment: Cytotoxicity against human MCF7 cells by MTT assay; format: functional, cell-based
[7] = test system: A549; experiment: Cytotoxicity against human A549 cells by MTT assay; format: functional, cell-based
[8] = test system: HL-60; experiment: Cytotoxicity against human HL60 cells by MTT assay; format: functional, cell-based
[9] = test system: SMMC-7721; experiment: Cytotoxicity against human SMMC7721 cells by MTT assay; format: functional, cell-based

What does the source list for COc1cc2c(cc1C)C(=O)C=C1C2=C(C2=Cc3c(cc(O)c4cc(C)c(O)cc34)C(C)(C)C2=O)C(=O)C1(C)C [TRIGOHOWILOL E]?
MIC [1]: 12.5 µg/mL (≈ 23.4 µM); MIC [2]: 25 µg/mL (≈ 46.8 µM); MIC [3]: 50 µg/mL (≈ 93.5 µM); MIC [4]: 6.25 µg/mL (≈ 11.7 µM); IC50 [5]: 9.42 µM; IC50 [6]: 12.6 µM; IC50 [7]: 9.69 µM; IC50 [8]: 2.61 µM; IC50 [9]: 3.25 µM

With COc1cc2c(cc1C)C(=O)C=C1C2=C(C2=Cc3c(cc(O)c4cc(C)c(OC)cc34)C(C)(C)C2=O)C(=O)C1(C)C [TRIGOHOWILOL F] as the compound, how does the MIC [1] read?
Its MIC is 12.5 µg/mL (≈ 22.8 µM).

What about the MIC [2] of the same compound?
The MIC was 12.5 µg/mL (≈ 22.8 µM).

What about the MIC [3] of the same compound?
The MIC was 25 µg/mL (≈ 45.6 µM).

What about the MIC [4] of the same compound?
The MIC was 12.5 µg/mL (≈ 22.8 µM).

And the IC50 [5]?
The IC50 was 3.56 µM.

What about the IC50 [6] of the same compound?
Its IC50 is 4.2 µM.

And the IC50 [7]?
Its IC50 is 3.64 µM.

And the IC50 [8]?
The IC50 was 2.49 µM.

What about the IC50 [9] of the same compound?
The IC50 was 2.33 µM.

Which results are given for COc1cc2c(cc1C)C(=O)C=C1C2=C(C2=C3C(=CC(=O)c4cc(C)c(OC)cc43)C(C)(C)C2=O)C(=O)C1(C)C [TRIGOHOWILOL G]?
MIC [1]: > 50 µg/mL; MIC [2]: > 50 µg/mL; MIC [3]: > 50 µg/mL; MIC [4]: > 50 µg/mL; IC50 [5]: 8.39 µM; IC50 [6]: 15.5 µM; IC50 [7]: 5.35 µM; IC50 [8]: 17.8 µM; IC50 [9]: 2.78 µM

Which MIC [1] does the source give for COc1cc2c3c(cc(O)c2cc1C)C(C)(C)C(=O)C=C3 [TRIGOHOWILOL A] here?
The MIC was 25 µg/mL (≈ 88.5 µM).

And the MIC [2]?
Its MIC is 25 µg/mL (≈ 88.5 µM).

What about the MIC [3] of the same compound?
Its MIC is 25 µg/mL (≈ 88.5 µM).

And the MIC [4]?
The MIC was 25 µg/mL (≈ 88.5 µM).

And the IC50 [5]?
Its IC50 is > 40 µM.

And the IC50 [6]?
The IC50 was > 40 µM.

And the IC50 [7]?
The IC50 was 35.6 µM.

And the IC50 [8]?
Its IC50 is 24.8 µM.

And the IC50 [9]?
The IC50 was > 40 µM.

Cc1cc2c(cc1O)C1=C(C3=Cc4c(cc(O)c5cc(C)c(O)cc45)C(C)(C)C3=O)C(=O)C(C)(C)C1=CC2=O [TRIGOHOWILOL C] was tested. Which MIC [1] did it give?
Its MIC is 25 µg/mL (≈ 48 µM).

What about the MIC [2] of the same compound?
Its MIC is 25 µg/mL (≈ 48 µM).

What about the MIC [3] of the same compound?
Its MIC is 25 µg/mL (≈ 48 µM).

And the MIC [4]?
Its MIC is 25 µg/mL (≈ 48 µM).

And the IC50 [5]?
Its IC50 is > 40 µM.

What about the IC50 [6] of the same compound?
Its IC50 is > 40 µM.

What about the IC50 [7] of the same compound?
Its IC50 is > 40 µM.

And the IC50 [8]?
Its IC50 is > 40 µM.

And the IC50 [9]?
The IC50 was > 40 µM.

With CN[C@H](CC(C)C)C(=O)N[C@H]1C(=O)N[C@@H](CC(N)=O)C(=O)N[C@H]2C(=O)N[C@H]3C(=O)N[C@H](C(=O)N[C@H](C(=O)O)c4cc(O)cc(O)c4-c4cc3ccc4O)[C@H](O)c3ccc(c(Cl)c3)Oc3cc2cc(c3O[C@@H]2O[C@H](CO)[C@@H](O)[C@H](O)[C@H]2O[C@H]2C[C@](C)(N)[C@H](O)[C@H](C)O2)Oc2ccc(cc2Cl)[C@H]1O.Cl [VANCOMYCIN HYDROCHLORIDE] as the compound, how does the MIC [1] read?
The MIC was 0.78 µg/mL.

What about the MIC [2] of the same compound?
Its MIC is 0.78 µg/mL.

And the MIC [3]?
Its MIC is 0.78 µg/mL.

And the MIC [4]?
The MIC was 0.78 µg/mL.

Which MIC [1] does the source give for Cc1cc2ccc3c(c2cc1O)C=C(O)C(=O)C3(C)C [TRIGOHOWILOL B] here?
Its MIC is 50 µg/mL (≈ 186 µM).

And the MIC [2]?
The MIC was 50 µg/mL (≈ 186 µM).

And the MIC [3]?
Its MIC is 25 µg/mL (≈ 93.2 µM).

And the MIC [4]?
Its MIC is 25 µg/mL (≈ 93.2 µM).

What about the IC50 [5] of the same compound?
The IC50 was > 40 µM.

What about the IC50 [6] of the same compound?
The IC50 was > 40 µM.

What about the IC50 [7] of the same compound?
Its IC50 is > 40 µM.

What about the IC50 [8] of the same compound?
The IC50 was > 40 µM.

And the IC50 [9]?
Its IC50 is > 40 µM.

COc1cc2c3c(cc(O)c2cc1C)C(C)(C)C(=O)C(C1=C2C(=CC(=O)c4cc(C)c(O)cc42)C(C)(C)C1=O)=C3 [TRIGOHOWILOL D] was tested. Which MIC [1] did it give?
Its MIC is 12.5 µg/mL (≈ 23.4 µM).

What about the MIC [2] of the same compound?
Its MIC is 12.5 µg/mL (≈ 23.4 µM).

What about the MIC [3] of the same compound?
Its MIC is 25 µg/mL (≈ 46.8 µM).

And the MIC [4]?
The MIC was 12.5 µg/mL (≈ 23.4 µM).

And the IC50 [5]?
Its IC50 is > 40 µM.

What about the IC50 [6] of the same compound?
Its IC50 is > 40 µM.

And the IC50 [7]?
Its IC50 is > 40 µM.

And the IC50 [8]?
The IC50 was 24.3 µM.

What about the IC50 [9] of the same compound?
Its IC50 is > 40 µM.
